US6403561B1, “Tripeptidylpeptidase inhibitors” (Institut National de la Sante et de la Recherche Medicale …, priority 1998, dated 2002)
Counter-ions that a name gives are not always drawn. Where a SMILES comes first, the peptide text is derived from it. [ ]: non-standard residue; d: D form. The star is where a group is joined. ξ: configuration not given here. Oic = O=C(O)[C@@H]1C[C@@H]2CCCC[C@@H]2N1; Pro(cis-4-F) = O=C(O)[C@@H]1C[C@H](F)CN1; Tic = O=C(O)[C@@H]1Cc2ccccc2CN1; Abu = CC[C@H](N)C(=O)O; ξAbu = CCC(N)C(=O)O; NHBu = CCCCN*; NHPr = CCCN*

test system: not given; experiment: not given; conditions: not given

Row | melting point | Compound
1 | 138 to 139 °C | CC[C@H](N)C(=O)N1c2ccccc2C[C@H]1C(=O)NC (as salt: oxalate) (hydrate or solvate) [Example 16, 1-(2(S)-aminobutyryl)-2(S)-indolinecarboxylic Acid methylamide]
2 | 165 to 166 °C | CCCCNC(=O)[C@@H]1CCCN1C(=O)[C@@H](N)C(C)C (as salt: oxalate) [Example 8, L-valyl-L-proline n-butylamide] (H-Val-Pro-NHBu)
3 | 112 to 120 °C | CCCCNC(=O)C1Cc2cc(OC)ccc2N1C(=O)[C@@H](N)C(C)C.O=C(O)C(=O)O (mixture of isomers) [Example 24, 1-(L-valyl)-5-methoxyindoline-2(R/S)-carboxylic Acid Butylamide Oxalate]
4 | 58 to 61 °C | CC[C@H](N)C(=O)N1CCC[C@H]1C(=O)NCC(C)C (as salt: trifluoroacetate) [Example 7, 1-(2(S)-amino-butyryl)-L-proline isobutylamide]
5 | 168 to 169 °C | CCCCNC(=O)[C@@H]1C[C@@H]2CCCC[C@@H]2N1C(=O)[C@@H](N)CC (as salt: salt) [Example 22, 1-(2(S)-aminobutyryl)-2(S)-[(3aS,7aS)-perhydro]indolinecarboxylic Acid N-butylamide] (H-[Abu]-[Oic]-NHBu)
6 | 90 to 92 °C | CCCCNC(=O)C1c2ccccc2CN1C(=O)[C@@H](N)CC (mixture of isomers) (as salt: oxalate) [Example 23, 2-(2(S)-aminobutyryl)-1-(R/S)-isoindolinecarboxylic Acid N-butylamide]
7 | 120 to 121 °C | CC[C@H](N)C(=O)N1CCC[C@H]1C(=O)NCCCSC (as salt: oxalate) [Example 2, 1-(2(S)-amino-butyryl)-L-proline 3-(methylthio)propylamide]
8 | 95 to 105 °C | CCCCNC(=O)C1Cc2cc(OC)ccc2N1C(=O)[C@@H](N)CC (mixture of isomers) (as salt: oxalate) [Example 18, 1-(2(S)-amino-butyryl)-2(R/S)-(5-methoxy)indolinecarboxylic Acid n-butylamide]
9 | 105 to 110 °C | CCCCNC(=O)[C@@H]1Cc2ccccc2CN1C(=O)[C@@H](N)CC (as salt: oxalate) [Example 13, 2-(2(S)-amino-butyryl)-1,2,3,4-tetrahydro-3(S)-isoquinolinecarboxylic Acid n-butylamide] (H-[Abu]-[Tic]-NHBu)
10 | 129 to 130 °C | CCCCNC(=O)C1Cc2cc(O)ccc2N1C(=O)[C@@H](N)CC.O=C(O)C(=O)O (mixture of isomers) [Example 34, 1-2(S)-aminobutyryl-5-hydroxyindoline-2(R/S)-carboxylic Acid Butylamide Oxalate]
11 | 83 to 84 °C | CCCCNC(=O)[C@@H]1Cc2cc(Cl)ccc2N1C(=O)[C@@H](N)CC.O=C(O)C(F)(F)F [Example 36, 1-(2(S)-aminobutyryl)-5-chloroindoline-2(S)-carboxylic Acid Butylamide Trifluoroacetate]
12 | 127 to 133 °C | CCCCNC(=O)C1N(C(=O)[C@@H](N)CC)c2ccccc2C1(C)C.O=C(O)C(=O)O (mixture of isomers) [Example 28, 1-(2(S)-aminobutyryl)-3,3-dimethylindoline-2(R/S)-carboxylic Acid Butylamide Oxalate]
13 | 146 to 147 °C | CCCCCCNC(=O)[C@@H]1CCCN1C(=O)[C@@H](N)C(C)C (as salt: oxalate) [Example 1, L-valyl-L-proline n-hexylamide]
14 | 140 to 141 °C | CCCCCNC(=O)[C@@H]1CCCN1C(=O)[C@@H](N)CC (as salt: oxalate) [Example 3, 1-(2(S)-aminobutyryl)-L-proline n-pentylamide]
15 | 110 to 112 °C | CCCCNC(=O)C1Cc2cc(C)ccc2N1C(=O)[C@@H](N)CC.O=C(O)C(=O)O (mixture of isomers) [Example 35, 1-2(S)-aminobutyryl-5-methylindoline-2(R/S)-carboxylic Acid Butylamide Oxalate]

target: membrane-bound tripeptidylpeptidase II (Rattus norvegicus, UniProt Q64560); experiment: Measurement of the activity of membrane-bound tripeptidylpeptidase (release of Amc from A-AP-Amc, fluorimetry); conditions: Ki, apparent dissociation constant calculated from the 50% inhibitory concentration and the KM of the substrate (23 μM); rat brain membranes, 50 μM A-AP-Amc
Sequence (Q64560 whole entry): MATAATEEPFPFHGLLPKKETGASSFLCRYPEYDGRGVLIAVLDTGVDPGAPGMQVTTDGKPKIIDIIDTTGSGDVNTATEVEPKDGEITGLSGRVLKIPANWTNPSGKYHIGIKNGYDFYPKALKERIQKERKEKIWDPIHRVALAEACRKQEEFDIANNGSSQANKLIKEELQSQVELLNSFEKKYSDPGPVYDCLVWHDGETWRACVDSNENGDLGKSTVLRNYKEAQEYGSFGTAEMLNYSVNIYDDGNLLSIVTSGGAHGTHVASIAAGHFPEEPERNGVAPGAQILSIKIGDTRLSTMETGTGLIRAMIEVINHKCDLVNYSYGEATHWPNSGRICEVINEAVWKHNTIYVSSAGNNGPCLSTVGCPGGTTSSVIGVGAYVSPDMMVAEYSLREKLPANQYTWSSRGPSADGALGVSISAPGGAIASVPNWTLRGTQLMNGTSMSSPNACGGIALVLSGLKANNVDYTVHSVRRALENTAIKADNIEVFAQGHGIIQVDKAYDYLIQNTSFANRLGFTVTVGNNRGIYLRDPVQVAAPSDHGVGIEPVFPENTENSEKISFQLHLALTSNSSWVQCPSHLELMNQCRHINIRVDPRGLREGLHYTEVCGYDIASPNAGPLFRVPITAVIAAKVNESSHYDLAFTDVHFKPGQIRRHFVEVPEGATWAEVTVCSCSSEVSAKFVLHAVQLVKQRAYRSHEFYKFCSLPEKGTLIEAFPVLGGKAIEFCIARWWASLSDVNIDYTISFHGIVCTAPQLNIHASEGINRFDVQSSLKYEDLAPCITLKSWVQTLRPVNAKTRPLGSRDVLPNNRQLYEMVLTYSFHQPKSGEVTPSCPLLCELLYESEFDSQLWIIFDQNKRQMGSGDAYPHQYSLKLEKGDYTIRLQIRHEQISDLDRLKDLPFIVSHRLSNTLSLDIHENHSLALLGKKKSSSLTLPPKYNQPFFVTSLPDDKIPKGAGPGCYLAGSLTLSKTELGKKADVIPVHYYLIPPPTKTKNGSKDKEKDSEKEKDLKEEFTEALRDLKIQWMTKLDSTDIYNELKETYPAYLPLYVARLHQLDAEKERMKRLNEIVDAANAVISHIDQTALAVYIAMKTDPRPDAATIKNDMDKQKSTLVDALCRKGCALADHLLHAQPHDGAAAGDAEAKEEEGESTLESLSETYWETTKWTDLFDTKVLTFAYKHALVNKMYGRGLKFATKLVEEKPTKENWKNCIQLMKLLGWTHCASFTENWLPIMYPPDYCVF
Protocol: Membranes from rat brain were obtained by centrifugation (200,000×g min) of a homogenate prepared in 10 volumes of 50 mM potassium phosphate buffer, pH 7.4.
After washing thoroughly, the centrifugation pellet is taken up in the buffer containing 10% glycerol and 0.1% Brij 35 in order to obtain a concentration of 25 mg of proteins/ml.
The release of Amc is evaluated by fluorimetry.

Row | Ki | Compound
16 | 80 nM | CCCNC(=O)[C@@H]1CCCN1C(=O)[C@@H](N)CC [Example 6, 1-(2(S)-amino-butyryl)-L-proline n-propylamide] (H-[Abu]-Pro-NHPr)
17 | 77 nM | CCCCNC(=O)C1Cc2ccc(OC)cc2N1C(=O)[C@@H](N)CC (mixture of isomers) [Example 19, 1-(2(S)-aminobutyryl)-2(R/S)-(6-methoxy)indolinecarboxylic acid n-butylamide]
18 | 570 nM | CCC(N)C(=O)N1CCC[C@H]1C(N)=O (stereo partly drawn) [2 (S)-aminobutyryl-L-prolineamide, reference compound] (H-[ξAbu]-Pro-NH2)
19 | 40 nM | CCCCNC(=O)[C@@H]1Cc2ccccc2CN1C(=O)[C@@H](N)CC [Example 13, 2-(2(S)-amino-butyryl)-1,2,3,4-tetrahydro-3(S)-isoquinolinecarboxylic Acid n-butylamide] (H-[Abu]-[Tic]-NHBu)
20 | 1000 nM | CCCCNC(=O)C1Cc2cc(OCc3ccccc3)ccc2N1C(=O)[C@@H](N)CC (mixture of isomers) [Example 21]
21 | 320 nM | CCCCNC(=O)[C@@H]1C[C@H](F)CN1C(=O)[C@@H](N)CC [Example 11, 1-(2(S)-amino-butyryl)-(4(S)-fluoro)-L-proline n-butylamide] (H-[Abu]-[Pro(cis-4-F)]-NHBu)
22 | 270 nM | CCCCCNC(=O)[C@@H]1CCCN1C(=O)[C@@H](N)CC [Example 3, 1-(2(S)-aminobutyryl)-L-proline n-pentylamide]
23 | 146 nM | CCCCNC(=O)C1Cc2cc(OC)ccc2N1C(=O)[C@@H](N)C(C)C (mixture of isomers) [Example 24, 1-(L-valyl)-5-methoxyindoline-2(R/S)-carboxylic Acid Butylamide Oxalate]
24 | 6 nM | CCCCNC(=O)[C@@H]1Cc2cc(OC)ccc2N1C(=O)[C@@H](N)CC [18 (S,S) isomer]
25 | 12 nM | CCCCNC(=O)C1Cc2cc(F)ccc2N1C(=O)[C@@H](N)CC (mixture of isomers) [Example 20, 1-(2(S)-aminobutyryl)-2(R/S)-(5-fluoro)indolinecarboxylic Acid N-butylamide]
26 | 500 nM | CC[C@H](C)CNC(=O)[C@@H]1CCCN1C(=O)[C@@H](N)CC [Example 5, 1-(2(S)-aminobutyryl)-L-proline [2(S)methyl]butylamide]
27 | 864 nM | CCCCNC(=O)C1N(C(=O)[C@@H](N)CC)c2ccccc2C1(C)C (mixture of isomers) [Example 28, 1-(2(S)-aminobutyryl)-3,3-dimethylindoline-2(R/S)-carboxylic Acid Butylamide Oxalate]
28 | 593 nM | CCCCNC(=O)C1C(C)c2ccccc2N1C(=O)C(N)CC (single isomer, unassigned) [Example 29]
29 | 22.6 nM | CCCCNC(=O)C1Cc2cc(C)ccc2N1C(=O)[C@@H](N)CC (mixture of isomers) [Example 35, 1-2(S)-aminobutyryl-5-methylindoline-2(R/S)-carboxylic Acid Butylamide Oxalate]
30 | 10.4 nM | CCCCNC(=O)C1Cc2cc(O)ccc2N1C(=O)[C@@H](N)CC (mixture of isomers) [Example 34, 1-2(S)-aminobutyryl-5-hydroxyindoline-2(R/S)-carboxylic Acid Butylamide Oxalate]
31 | 900 nM | CCCCCCNC(=O)[C@@H]1CCCN1C(=O)[C@@H](N)C(C)C [Example 1, L-valyl-L-proline n-hexylamide]
32 | 241 nM | CCCCNC(=O)[C@H]1Cc2cc(OC)ccc2N1C(=O)[C@@H](N)CC [18 (S,R) isomer]
33 | 26 nM | CCCCNC(=O)C1Cc2cc(OC)ccc2N1C(=O)[C@H](C)N (mixture of isomers) [Example 25, 1-(L-alanyl)-5-methoxyindoline-2(R/S)-carboxylic Acid Butylamide Oxalate]
34 | 9.6 nM | CCCCNC(=O)C1Cc2c(ccc(OC)c2OC)N1C(=O)[C@@H](N)CC (mixture of isomers) [Example 32, 1-(2(S)-aminobutyryl)-4,5-dimethoxyindoline-2(R/S)-carboxylic Acid Butylamide Oxalate]
35 | 300 nM | CC[C@H](N)C(=O)N1CCC[C@H]1C(=O)NCCCSC [Example 2, 1-(2(S)-amino-butyryl)-L-proline 3-(methylthio)propylamide]
36 | 100 nM | CCCCNC(=O)[C@@H]1CCCN1C(=O)[C@@H](N)CC [Example 4, 1-(2(S)-amino-butyryl)-L-proline n-butylamide] (H-[Abu]-Pro-NHBu)
37 | 143 nM | CCCCNC(=O)C1c2ccccc2CN1C(=O)[C@@H](N)CC (mixture of isomers) [Example 23, 2-(2(S)-aminobutyryl)-1-(R/S)-isoindolinecarboxylic Acid N-butylamide]
38 | 14 nM | CCCCNC(=O)C1Cc2c(OC)cccc2N1C(=O)[C@@H](N)CC (mixture of isomers) [Example 27, 1-(2(S)-aminobutyryl)-4-methoxyindoline-2(R/S)-carboxylic Acid Butylamide Oxalate]
39 | 570 nM | CCCCNC(=O)[C@@H]1CCCN1C(=O)[C@@H](N)C(C)C [Example 8, L-valyl-L-proline n-butylamide] (H-Val-Pro-NHBu)
40 | 32 nM | CCCCNC(=O)C1C(C)c2ccccc2N1C(=O)C(N)CC (single isomer, unassigned) [Example 30]
41 | 8 nM | CCCCNC(=O)C1Cc2cc(OC)ccc2N1C(=O)[C@@H](N)CC (mixture of isomers) [Example 18, 1-(2(S)-amino-butyryl)-2(R/S)-(5-methoxy)indolinecarboxylic Acid n-butylamide]
42 | 320 nM | CC[C@H](N)C(=O)N1CCC[C@H]1C(=O)NCC(C)C [Example 7, 1-(2(S)-amino-butyryl)-L-proline isobutylamide]

same assay, conditions: apparent dissociation constant calculated from the 50% inhibitory concentration and the KM of the substrate (23 μM); rat brain membranes, 50 μM A-AP-Amc

Row | Ki | Compound
43 | 140 nM | CCCCNC(=O)[C@@H]1C[C@H](Cc2ccccc2)CN1C(=O)[C@@H](N)CC [Example 12, 1-(2(S)-aminobutyryl)-(4(S)-benzyl)-L-proline n-butylamide]
44 | 0.3 nM | L-alanyl-L-prolyldifluoro-L-borovaline borohydride [Example 10]
